Results published in the supplement of paper PMC13207355.
Where a name gives a salt, the structure may show the parent alone.

Columns and labels:
Conditions in all cases: exposure time: 72 h
E21 [1] = patient-derived glioblastoma stem cells of mesenchymal subtype; experiment: phenotypic distance (Euclidean, principal components) from DMSO controls (arbitrary units); higher = stronger morphological change
E28 [2] = patient-derived glioblastoma stem cells of classical subtype; experiment: as above
FT3469 [3] = normal neural stem cell line; experiment: as above
E31 [4] = patient-derived glioblastoma stem cells of proneural subtype; experiment: as above
E57 [5] = patient-derived glioblastoma stem cells of mesenchymal subtype; experiment: as above
E13 [6] = patient-derived glioblastoma stem cells of classical subtype; experiment: as above
E34 [7] = patient-derived glioblastoma stem cells of proneural subtype; experiment: as above
E21 [8] = experiment: surviving fraction (nuclei count normalised to DMSO); higher = more cells surviving (less toxic)
E28 [9] = experiment: as above
FT3469 [10] = experiment: as above
E31 [11] = experiment: as above
E57 [12] = experiment: as above
E13 [13] = experiment: as above
E34 [14] = experiment: as above
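Wherever phenotypic distance (Euclidean, principal components) from DMSO controls is given: cell Painting imaging in 384-well plates, CellProfiler features reduced to at least 20 principal components, Euclidean distance versus same-plate DMSO vehicle wells (0.1% v/v), median over six images per well.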
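Wherever surviving fraction (nuclei count normalised to DMSO) is given: nuclei counted by high-content imaging of Hoechst-stained cells in laminin-coated 384-well plates, relative to 0.1% DMSO vehicle wells, with staurosporine as cell-death control.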

CNCCCC12CCC(c3ccccc31)c1ccccc12 [Maprotiline hydrochloride]
Conditions | phenotypic distance | surviving fraction
E13 [6], 4.1 nM | 0.553 | –
E13 [6], 12.3 nM | 0.296 | –
E13 [6], 37 nM | 0.356 | –
E13 [6], 111.1 nM | 0.55 | –
E13 [6], 333.3 nM | 0.608 | –
E13 [6], 1000 nM | 0.471 | –
E13 [6], 3000 nM | 0.392 | –
E13 [13], 4.1 nM | – | 0.984
E13 [13], 12.3 nM | – | 1.05
E13 [13], 37 nM | – | 0.987
E13 [13], 111.1 nM | – | 1.05
E13 [13], 333.3 nM | – | 1.1
E13 [13], 1000 nM | – | 1.05
E13 [13], 3000 nM | – | 0.911
E21 [1], 4.1 nM | 0.674 | –
E21 [1], 12.3 nM | 1.04 | –
E21 [1], 37 nM | 0.745 | –
E21 [1], 111.1 nM | 1.03 | –
E21 [1], 333.3 nM | 0.9 | –
E21 [1], 1000 nM | 0.798 | –
E21 [1], 3000 nM | 0.546 | –
E21 [8], 4.1 nM | – | 1.04
E21 [8], 12.3 nM | – | 0.944
E21 [8], 37 nM | – | 0.982
E21 [8], 111.1 nM | – | 1.06
E21 [8], 333.3 nM | – | 1.02
E21 [8], 1000 nM | – | 1.03
E21 [8], 3000 nM | – | 1.06
E28 [2], 4.1 nM | 0.756 | –
E28 [2], 12.3 nM | 0.57 | –
E28 [2], 37 nM | 0.744 | –
E28 [2], 111.1 nM | 0.651 | –
E28 [2], 333.3 nM | 0.753 | –
E28 [2], 1000 nM | 0.525 | –
E28 [2], 3000 nM | 0.615 | –
E28 [9], 4.1 nM | – | 1.23
E28 [9], 12.3 nM | – | 0.929
E28 [9], 37 nM | – | 0.979
E28 [9], 111.1 nM | – | 1.21
E28 [9], 333.3 nM | – | 1.13
E28 [9], 1000 nM | – | 0.951
E28 [9], 3000 nM | – | 0.979
E31 [4], 4.1 nM | 0.322 | –
E31 [4], 12.3 nM | 0.404 | –
E31 [4], 37 nM | 0.529 | –
E31 [4], 111.1 nM | 0.826 | –
E31 [4], 333.3 nM | 0.77 | –
E31 [4], 1000 nM | 0.546 | –
E31 [4], 3000 nM | 0.55 | –
E31 [11], 4.1 nM | – | 1.07
E31 [11], 12.3 nM | – | 1.06
E31 [11], 37 nM | – | 1.02
E31 [11], 111.1 nM | – | 0.859
E31 [11], 333.3 nM | – | 1.18
E31 [11], 1000 nM | – | 1.05
E31 [11], 3000 nM | – | 1.01
E34 [7], 4.1 nM | 0.824 | –
E34 [7], 12.3 nM | 0.524 | –
E34 [7], 37 nM | 0.568 | –
E34 [7], 111.1 nM | 1.03 | –
E34 [7], 333.3 nM | 0.644 | –
E34 [7], 1000 nM | 1.11 | –
E34 [7], 3000 nM | 0.788 | –
E34 [14], 4.1 nM | – | 1.04
E34 [14], 12.3 nM | – | 0.869
E34 [14], 37 nM | – | 0.875
E34 [14], 111.1 nM | – | 1.01
E34 [14], 333.3 nM | – | 1.02
E34 [14], 1000 nM | – | 0.997
E34 [14], 3000 nM | – | 1.07
E57 [5], 4.1 nM | 0.339 | –
E57 [5], 12.3 nM | 0.804 | –
E57 [5], 37 nM | 0.81 | –
E57 [5], 111.1 nM | 0.882 | –
E57 [5], 333.3 nM | 0.422 | –
E57 [5], 1000 nM | 0.498 | –
E57 [5], 3000 nM | 0.628 | –
E57 [12], 4.1 nM | – | 1.06
E57 [12], 12.3 nM | – | 1.12
E57 [12], 37 nM | – | 1.09
E57 [12], 111.1 nM | – | 1.1
E57 [12], 333.3 nM | – | 0.986
E57 [12], 1000 nM | – | 0.93
E57 [12], 3000 nM | – | 1.09
FT3469 [3], 4.1 nM | 0.707 | –
FT3469 [3], 12.3 nM | 0.982 | –
FT3469 [3], 37 nM | 0.677 | –
FT3469 [3], 111.1 nM | 1.1 | –
FT3469 [3], 333.3 nM | 0.895 | –
FT3469 [3], 1000 nM | 1.08 | –
FT3469 [3], 3000 nM | 0.56 | –
FT3469 [10], 4.1 nM | – | 1.09
FT3469 [10], 12.3 nM | – | 1.18
FT3469 [10], 37 nM | – | 1.3
FT3469 [10], 111.1 nM | – | 1.07
FT3469 [10], 333.3 nM | – | 0.901
FT3469 [10], 1000 nM | – | 1.16
FT3469 [10], 3000 nM | – | 0.869

Cc1cc(/C=C/c2ccc3cc(N(C)C)ccc3[n+]2C)c(C)n1-c1ccccc1 [Pyrvinium pamoate]
Conditions | phenotypic distance | surviving fraction
E13 [6], 4.1 nM | 4.29 | –
E13 [6], 12.3 nM | 1.32 | –
E13 [6], 37 nM | 2.18 | –
E13 [6], 111.1 nM | 4.63 | –
E13 [6], 333.3 nM | 4.15 | –
E13 [6], 1000 nM | 4.49 | –
E13 [6], 3000 nM | 6.77 | –
E13 [13], 4.1 nM | – | 0.769
E13 [13], 12.3 nM | – | 0.742
E13 [13], 37 nM | – | 0.57
E13 [13], 111.1 nM | – | 0.408
E13 [13], 333.3 nM | – | 0.479
E13 [13], 1000 nM | – | 0.264
E13 [13], 3000 nM | – | 0.0823
E21 [1], 4.1 nM | 0.978 | –
E21 [1], 12.3 nM | 1.16 | –
E21 [1], 37 nM | 2.86 | –
E21 [1], 111.1 nM | 4.87 | –
E21 [1], 333.3 nM | 4.65 | –
E21 [1], 1000 nM | 6.33 | –
E21 [1], 3000 nM | 23.7 | –
E21 [8], 4.1 nM | – | 0.856
E21 [8], 12.3 nM | – | 0.815
E21 [8], 37 nM | – | 0.577
E21 [8], 111.1 nM | – | 0.467
E21 [8], 333.3 nM | – | 0.425
E21 [8], 1000 nM | – | 0.149
E21 [8], 3000 nM | – | 0.00213
E28 [2], 4.1 nM | 0.873 | –
E28 [2], 12.3 nM | 1.67 | –
E28 [2], 37 nM | 2.93 | –
E28 [2], 111.1 nM | 4.57 | –
E28 [2], 333.3 nM | 4.5 | –
E28 [2], 1000 nM | 4.93 | –
E28 [2], 3000 nM | 9.86 | –
E28 [9], 4.1 nM | – | 0.853
E28 [9], 12.3 nM | – | 0.704
E28 [9], 37 nM | – | 0.547
E28 [9], 111.1 nM | – | 0.278
E28 [9], 333.3 nM | – | 0.195
E28 [9], 1000 nM | – | 0.106
E28 [9], 3000 nM | – | 0.0134
E31 [4], 4.1 nM | 1.33 | –
E31 [4], 12.3 nM | 1.04 | –
E31 [4], 37 nM | 2.33 | –
E31 [4], 111.1 nM | 5.34 | –
E31 [4], 333.3 nM | 7.12 | –
E31 [4], 1000 nM | 9.54 | –
E31 [4], 3000 nM | 18.8 | –
E31 [11], 4.1 nM | – | 1.01
E31 [11], 12.3 nM | – | 0.828
E31 [11], 37 nM | – | 0.484
E31 [11], 111.1 nM | – | 0.21
E31 [11], 333.3 nM | – | 0.146
E31 [11], 1000 nM | – | 0.0654
E31 [11], 3000 nM | – | 0
E34 [7], 4.1 nM | 0.966 | –
E34 [7], 12.3 nM | 0.752 | –
E34 [7], 37 nM | 1.33 | –
E34 [7], 111.1 nM | 3.14 | –
E34 [7], 333.3 nM | 3.58 | –
E34 [7], 1000 nM | 4.06 | –
E34 [7], 3000 nM | 6.46 | –
E34 [14], 4.1 nM | – | 0.92
E34 [14], 12.3 nM | – | 0.867
E34 [14], 37 nM | – | 0.645
E34 [14], 111.1 nM | – | 0.578
E34 [14], 333.3 nM | – | 0.667
E34 [14], 1000 nM | – | 0.443
E34 [14], 3000 nM | – | 0.5
E57 [5], 4.1 nM | 1.23 | –
E57 [5], 12.3 nM | 0.86 | –
E57 [5], 37 nM | 2.14 | –
E57 [5], 111.1 nM | 6.51 | –
E57 [5], 333.3 nM | 7.55 | –
E57 [5], 1000 nM | 8.44 | –
E57 [5], 3000 nM | 11.2 | –
E57 [12], 4.1 nM | – | 1.05
E57 [12], 12.3 nM | – | 1.01
E57 [12], 37 nM | – | 0.785
E57 [12], 111.1 nM | – | 0.364
E57 [12], 333.3 nM | – | 0.272
E57 [12], 1000 nM | – | 0.155
E57 [12], 3000 nM | – | 0.0231
FT3469 [3], 4.1 nM | 1.38 | –
FT3469 [3], 12.3 nM | 1.31 | –
FT3469 [3], 37 nM | 2.27 | –
FT3469 [3], 111.1 nM | 2.94 | –
FT3469 [3], 333.3 nM | 3.78 | –
FT3469 [3], 1000 nM | 7.4 | –
FT3469 [3], 3000 nM | 13 | –
FT3469 [10], 4.1 nM | – | 0.97
FT3469 [10], 12.3 nM | – | 0.882
FT3469 [10], 37 nM | – | 0.866
FT3469 [10], 111.1 nM | – | 0.677
FT3469 [10], 333.3 nM | – | 0.61
FT3469 [10], 1000 nM | – | 0.461
FT3469 [10], 3000 nM | – | 0.0541
